Reference: ChEMBL document CHEMBL1142392, “Synthesis and analysis of a fluorinated product analogue as an inhibitor for 1-deoxy-D-xylulose 5-phosphate reductoisomerase” (Bioorg Med Chem Lett, 2008)
Activity calls are given as the source filed them. The calls are words filed in the database; no cut-off is given here.

Assay: Inactivation of DXR

SMILES: C[C@@](CO)(CF)[C@H](O)COP(=O)(O)O
- Activity: Active
